Earlier results in patent US20220175800A1, “DISPERSIBLE TABLET COMPOSITION” (PTC THERAPEUTICS INC., priority 2019, published 2022).

Solubility in water: poorly soluble in water
SMILES: CC(=O)OCC(=O)[C@@]12N=C(C)O[C@@H]1C[C@H]1[C@@H]3CCC4=CC(=O)C=C[C@]4(C)[C@H]3[C@@H](O)C[C@@]12C [Deflazacort, (11β,16β)-21-(acetyloxy)11-hydroxy-2′-methyl-5′H-pregna-1,4-dieno[17,16-d]oxazole-3,20-dione]
